Experimental data as given in ChEMBL document CHEMBL5126553, “Dentithecamides A-H, Diacylated Zoanthoxanthin Derivatives with PAX3-FOXO1 Inhibitory Activity from the Hydroid Dentitheca habereri” (J Nat Prod, 2022).
Active and inactive are the calls of the source. The calls are words filed in the database; no cut-off is given here.

Columns and labels:
PAX3/FOXO1 = PAX3/FOXO1 (Homo sapiens, UniProt P23760+Q12778); assay: Inhibition of PAX3-FOXO1 driven transcriptional activity in human Rh4 cells transfected with ALK-Luc construct incubated for 24 hrs by luciferase assay; format: cell-based
Sequence of PAX3/FOXO1 (Q12778 whole entry): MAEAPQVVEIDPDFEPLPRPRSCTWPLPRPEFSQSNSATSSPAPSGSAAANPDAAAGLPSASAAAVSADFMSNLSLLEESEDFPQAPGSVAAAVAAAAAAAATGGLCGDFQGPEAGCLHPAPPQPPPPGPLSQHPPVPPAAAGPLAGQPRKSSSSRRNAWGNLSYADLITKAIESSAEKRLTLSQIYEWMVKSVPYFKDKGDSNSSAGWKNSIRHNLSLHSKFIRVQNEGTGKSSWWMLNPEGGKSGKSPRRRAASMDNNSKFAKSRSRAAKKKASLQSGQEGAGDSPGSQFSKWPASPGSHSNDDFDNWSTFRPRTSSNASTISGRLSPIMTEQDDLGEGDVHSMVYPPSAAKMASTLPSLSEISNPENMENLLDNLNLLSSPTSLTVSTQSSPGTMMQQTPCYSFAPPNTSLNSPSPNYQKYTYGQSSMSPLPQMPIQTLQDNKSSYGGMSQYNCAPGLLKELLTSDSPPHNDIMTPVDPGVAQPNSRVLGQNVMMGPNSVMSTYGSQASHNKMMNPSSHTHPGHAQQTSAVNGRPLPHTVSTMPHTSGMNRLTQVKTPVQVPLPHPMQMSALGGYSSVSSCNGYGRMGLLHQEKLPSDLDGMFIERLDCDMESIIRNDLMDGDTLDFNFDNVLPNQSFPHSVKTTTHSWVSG
Sequence of PAX3/FOXO1 (P23760 whole entry): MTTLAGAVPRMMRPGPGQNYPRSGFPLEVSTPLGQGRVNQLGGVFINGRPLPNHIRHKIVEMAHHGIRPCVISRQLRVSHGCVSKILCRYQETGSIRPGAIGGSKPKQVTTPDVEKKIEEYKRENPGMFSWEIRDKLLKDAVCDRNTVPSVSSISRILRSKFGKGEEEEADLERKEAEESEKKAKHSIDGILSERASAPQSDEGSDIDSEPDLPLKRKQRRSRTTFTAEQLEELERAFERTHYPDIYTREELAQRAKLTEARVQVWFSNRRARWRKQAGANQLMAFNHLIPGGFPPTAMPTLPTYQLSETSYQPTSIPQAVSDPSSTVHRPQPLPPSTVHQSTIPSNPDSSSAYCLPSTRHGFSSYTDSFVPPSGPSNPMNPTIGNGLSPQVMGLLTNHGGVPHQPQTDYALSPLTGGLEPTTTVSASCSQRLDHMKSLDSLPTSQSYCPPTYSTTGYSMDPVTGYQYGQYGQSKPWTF

[1] = Cytotoxicity against human Rh4 cells transfected with CMV-Luc construct assessed as inhibition of cell growth at 100 uM by luciferase assay; format: toxicity, cell-based; details: rh4, 100 µM
[2] = target: T1, PAX3/FOXO1 (Homo sapiens) (UniProt Q12778+P23760); assay: Inhibition of PAX3-FOXO1 driven transcriptional activity in human Rh4 cells assessed as upregulation of GADD45B gene expression at 20 uM incubated for 6 hrs by GSEA analysis; format: cell-based
T1 sequence (P23760 whole entry, looked up): as the sequence (P23760 whole entry) above
T1 sequence (Q12778 whole entry, looked up): as the sequence (Q12778 whole entry) above

[3] = target: T1, PAX3/FOXO1 (Homo sapiens); assay: Inhibition of PAX3-FOXO1 driven transcriptional activity in human Rh4 cells assessed as upregulation of DGKD gene expression at 20 uM incubated for 6 hrs by GSEA analysis; format: cell-based
[4] = target: T1, PAX3/FOXO1 (Homo sapiens); assay: Inhibition of PAX3-FOXO1 driven transcriptional activity in human Rh4 cells assessed as upregulation of EPHA2 gene expression at 20 uM incubated for 6 hrs by GSEA analysis; format: cell-based
[5] = target: T1, PAX3/FOXO1 (Homo sapiens); assay: Inhibition of PAX3-FOXO1 driven transcriptional activity in human Rh4 cells assessed as upregulation of TIMP3 gene expression at 20 uM incubated for 6 hrs by GSEA analysis; format: cell-based
[6] = target: T1, PAX3/FOXO1 (Homo sapiens); assay: Inhibition of PAX3-FOXO1 driven transcriptional activity in human Rh4 cells assessed as upregulation of IL-11 gene expression at 20 uM incubated for 6 hrs by GSEA analysis; format: cell-based
[7] = target: T1, PAX3/FOXO1 (Homo sapiens); assay: Inhibition of PAX3-FOXO1 driven transcriptional activity in human Rh4 cells assessed as upregulation of KIT gene expression at 20 uM incubated for 6 hrs by GSEA analysis; format: cell-based
[8] = target: T1, PAX3/FOXO1 (Homo sapiens); assay: Inhibition of PAX3-FOXO1 driven transcriptional activity in human Rh4 cells assessed as upregulation of LBH gene expression at 20 uM incubated for 6 hrs by GSEA analysis; format: cell-based
[9] = target: T1, PAX3/FOXO1 (Homo sapiens); assay: Inhibition of PAX3-FOXO1 driven transcriptional activity in human Rh4 cells assessed as upregulation of SERPINE1 gene expression at 20 uM incubated for 6 hrs by GSEA analysis; format: cell-based
[10] = target: T1, PAX3/FOXO1 (Homo sapiens); assay: Inhibition of PAX3-FOXO1 driven transcriptional activity in human Rh4 cells assessed as upregulation of TNFRSF12A gene expression at 20 uM incubated for 6 hrs by GSEA analysis; format: cell-based
[11] = target: T1, PAX3/FOXO1 (Homo sapiens); assay: Inhibition of PAX3-FOXO1 driven transcriptional activity in human Rh4 cells assessed as upregulation of KLF10 gene expression at 20 uM incubated for 6 hrs by GSEA analysis; format: cell-based
[12] = target: T1, PAX3/FOXO1 (Homo sapiens); assay: Inhibition of PAX3-FOXO1 driven transcriptional activity in human Rh4 cells assessed as upregulation of SOX9 gene expression at 20 uM incubated for 6 hrs by GSEA analysis; format: cell-based
[13] = target: T1, PAX3/FOXO1 (Homo sapiens); assay: Inhibition of PAX3-FOXO1 driven transcriptional activity in human Rh4 cells assessed as upregulation of VEGFA gene expression at 20 uM incubated for 6 hrs by GSEA analysis; format: cell-based
[14] = target: T1, PAX3/FOXO1 (Homo sapiens); assay: Inhibition of PAX3-FOXO1 driven transcriptional activity in human Rh4 cells assessed as upregulation of ID1 gene expression at 20 uM incubated for 6 hrs by GSEA analysis; format: cell-based
[15] = target: T1, PAX3/FOXO1 (Homo sapiens); assay: Inhibition of PAX3-FOXO1 driven transcriptional activity in human Rh4 cells assessed as upregulation of BCL2L1 gene expression at 20 uM incubated for 6 hrs by GSEA analysis; format: cell-based
Rh4 = assay: Upregulation of TNF gene expression in human Rh4 cells; format: functional, cell-based

For `CC[C@H](C)C(=O)Nc1nc2c([nH]1)C(C)c1[nH]c(NC(=O)c3ccccc3)nc1CC2` (stereo partly specified), the IC50 (PAX3/FOXO1) was 26 µM and the Activity [1] was “Toxic”.
In the case of `CC[C@H](C)C(=O)Nc1nc2c([nH]1)C(C)c1[nH]c(NC(=O)/C=C/c3ccccc3)nc1CC2` (stereo partly specified), the IC50 (PAX3/FOXO1) is reported as 42 µM and the Activity [1] is reported as “Toxic”.
In the case of `CC(C)=CC(=O)Nc1nc2c([nH]1)C(C)c1[nH]c(NC(=O)c3ccccc3)nc1CC2` (stereo unspecified), the IC50 (PAX3/FOXO1) is reported as 17 µM, the Activity [1] is reported as “Toxic” and the inhibition [2] is reported as “Active”. The inhibition [3] was “Active”, the inhibition [4] was “Active” and the inhibition [5] was “Active”. For the same compound, the inhibition [6] was “Active”, the inhibition [7] was “Active” and the inhibition [8] was “Active”. For the same compound, the inhibition [9] was “Active”, the inhibition [10] was “Active” and the inhibition [11] was “Active”. For the same compound, the inhibition [12] was “Active”, the inhibition [13] was “Active” and the inhibition [14] was “Active”. For the same compound, the inhibition [15] was “Active” and the Activity (Rh4) was “Active”.
With `CC(C)C(=O)Nc1nc2c([nH]1)C(C)c1[nH]c(NC(=O)c3ccccc3)nc1CC2` (stereo unspecified) the IC50 (PAX3/FOXO1) was 67 µM and the Activity [1] was “Toxic”.
For `CC1c2[nH]c(NC(=O)c3ccccc3)nc2CCc2nc(NC(=O)c3ccccc3)[nH]c21`, the IC50 (PAX3/FOXO1) was 13 µM, the Activity [1] was “Toxic” and the Activity (Rh4) was “Active”.
